Test results published in the METLIN SMRT retention time set (Domingo-Almenara et al. 2019).

Assay: gradient 5% acetonitrile 3 min, to 50% in 2 min, to 85% in 15 min, held 3 min, 100 µL/min
Conditions: column: Zorbax Extend-C18 2.1 x 50 mm; eluents: water / acetonitrile, 0.1% formic acid
Summary of the method: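 In both positive and negative ionization mode, a quadrupole time-of-flight mass spectrometer coupled to HPLC analyzed pure standards run in mixtures of ~100 molecules. The Zorbax Extend-C18 column (2.1 × 50 mm, 1.8 μm) was operated at 100 μL/min with water and acetonitrile, each containing 0.1% formic acid. The dead volume was 40 μL and the dwell volume 900 μL. Retention time came from adduct peaks that were computationally picked and individually inspected by hand.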

RP-LC retention time	SMILES
923 s	CC(C)Cn1nc(CNC(=O)c2ccccn2)c2ccccc21
783 s	Cc1nc(-c2cccc(N3CC(C(=O)N4CCCc5ccccc54)CC3=O)c2)no1 (configuration not stated)
599 s	CC(C(=O)NCCCN1CCOCC1)n1c2ccccc2c2cnn(C)c(=O)c21 (configuration not stated)
710 s	O=C(NCc1cccc(F)c1)C1CCN(c2nnc3ccc(Cl)cn23)CC1
1170 s	Cc1ccc(Nc2nc(-c3ccccc3)cs2)cc1
590 s	O=C1Nc2ccccc2C(=O)N2CCCC12 (configuration not stated)
761 s	O=C(NCc1csc(C2CCN(C(=O)c3ccc(Cl)cc3)CC2)n1)C1CCC1
760 s	CN1CCC(OC(c2ccccc2)c2ccccc2)CC1
974 s	CC1CCN(C(=O)c2nc(CCS(=O)(=O)c3ccc(Cl)cc3)no2)CC1
676 s	Cc1cccc(-c2nc(-c3ccc4c(c3)ncn4CCN3CCCC3)no2)c1
731 s	Cc1csc(-c2nnc(Nc3ccc(Oc4ncccc4-c4ccnc(N)n4)cc3)c3ccccc23)c1
908 s	CCCn1ccc2sc(C)c(C(=O)NCc3ccccc3F)c2c1=O
1100 s	C/C=C1/C(=O)C[C@H]2[C@@H]3CCC4=CC(=O)CC[C@]4(C)[C@H]3CC[C@]12C
1010 s	CCOc1ccc(CC(=O)N2CCCC2c2nc(-c3ccccc3)no2)cc1OCC (configuration not stated)
879 s	CCCN1C(=O)COc2ccc(-c3csc(NC(=O)C4CC4)n3)cc21

The remaining lines, values behind:

SMILES	RP-LC retention time
NC(=O)C1CCN([C@H]2CS(=O)(=O)C[C@@H]2S(=O)(=O)c2ccc(F)cc2)CC1	629 s
COc1cc(Cl)ccc1C(=O)N1CCCN(C2CCN(CC3CC3)C2=O)CC1 (configuration not stated)	574 s
O=C(NCC1(c2cccs2)CCOCC1)C(=O)Nc1cccnc1	600 s
Cc1cc(N2CCN(C(=O)c3nccc4ccccc34)CC2)nc2nncn12	597 s
COc1ccc(N2CC(c3noc(-c4ccc(Cl)cc4)n3)CC2=O)cc1 (configuration not stated)	990 s
Cc1cc(C)n2c(Nc3ccc(C(C)C)cc3)c(-c3cccc(Br)c3)nc2n1	1000 s
O=C(Cc1csc(Nc2ccc(Cl)cn2)n1)N1CCCc2ccccc21	919 s
CS(=O)(=O)N1CCC(C(=O)Nc2ccccc2)Oc2ccc(Cl)cc21 (configuration not stated)	887 s
O=C(NCc1ccccc1C(F)(F)F)C1CCCN(c2ncnc3nn(-c4ccc(F)cc4)cc23)C1 (configuration not stated)	754 s
CC(NC(=O)c1ccccc1)C(=O)N1CCN(c2cc(C(C)C)n3cnnc3n2)CC1 (configuration not stated)	604 s
CCCn1cc(S(=O)(=O)NCc2ccccc2F)c2cccnc21	861 s
O=C(CCn1nnc2cc(-c3noc(-c4ccccc4Br)n3)ccc21)N1CCOCC1	896 s
Clc1ccc(-c2noc(Cc3nnc(-c4cccc(Br)c4)o3)n2)cc1	1210 s
CN(C(=O)CCCOc1ccc2[nH]c(=O)ccc2c1)C1CCCCC1	840 s
COc1ccc(-c2noc(C3CC(=O)N(c4cccc(Cl)c4)C3)n2)cc1 (configuration not stated)	998 s
CCc1ccc(OCC(=O)N(Cc2ccc(OC)cc2)C2CCS(=O)(=O)C2)cc1 (configuration not stated)	989 s
O=C(Cn1ccc2sccc2c1=O)NCc1ccc(F)cc1	694 s
Cc1cc(N2CCCC2)nc(N2CCN(C(=O)C3CCCCC3)CC2)n1	693 s
CCN1C(=O)C(C)(C(=O)NCc2ccc(C)cc2)Oc2cccnc21 (configuration not stated)	912 s
Cc1ccccc1OCc1nc(C2CN(C(=O)NC(C)C)C2)no1	804 s
O=S(=O)(c1cccc(Cl)c1)c1nnn2c1nc(N1CCCC1)c1sccc12	925 s
O=C(NCCN1CCOCC1)C1=C2CCCN2c2ccc(F)cc2S1(=O)=O	586 s
